What was measured:
TRPC3 [1] = biological target: T1, TRPC3 (Homo sapiens, UniProt Q13507); test: Fluo-4 Ca2+ influx assay in HEK TRPC3-YFP cell suspensions; format: cell-based
T1 construct: expressed in transfected cells
T1 sequence (Q13507 1-848 isoform Q13507-3): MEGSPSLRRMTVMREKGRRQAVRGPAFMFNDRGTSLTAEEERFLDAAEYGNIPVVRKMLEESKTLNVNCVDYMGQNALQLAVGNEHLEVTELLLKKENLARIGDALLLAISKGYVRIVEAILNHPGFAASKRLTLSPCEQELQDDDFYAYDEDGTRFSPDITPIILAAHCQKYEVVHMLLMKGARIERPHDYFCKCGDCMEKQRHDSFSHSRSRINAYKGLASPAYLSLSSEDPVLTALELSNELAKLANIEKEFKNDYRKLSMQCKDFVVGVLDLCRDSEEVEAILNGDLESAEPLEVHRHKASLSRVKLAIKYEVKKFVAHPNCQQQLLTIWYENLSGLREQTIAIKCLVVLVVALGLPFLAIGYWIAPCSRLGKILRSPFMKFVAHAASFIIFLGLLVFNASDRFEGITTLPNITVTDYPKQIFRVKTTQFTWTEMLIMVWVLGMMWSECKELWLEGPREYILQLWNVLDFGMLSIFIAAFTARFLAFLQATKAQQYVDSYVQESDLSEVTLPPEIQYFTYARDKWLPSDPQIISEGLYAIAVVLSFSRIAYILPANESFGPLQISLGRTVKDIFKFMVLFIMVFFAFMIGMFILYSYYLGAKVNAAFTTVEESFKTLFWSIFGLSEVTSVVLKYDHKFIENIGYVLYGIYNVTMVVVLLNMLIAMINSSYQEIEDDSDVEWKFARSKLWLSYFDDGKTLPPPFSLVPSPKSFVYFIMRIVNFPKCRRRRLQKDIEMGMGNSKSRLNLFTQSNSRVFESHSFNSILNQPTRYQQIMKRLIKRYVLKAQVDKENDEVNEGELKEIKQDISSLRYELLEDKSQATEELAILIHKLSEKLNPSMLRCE

TRPC6 = system: T2, TRPC6; test: Microfluorometric single-cell [Ca2+]i analysis, fura-2-loaded HEK cells stably expressing TRPC6; format: cell-based, human; conditions: 50 µM, standard bath 1 mM Ca2+
T2 construct: expressed in transfected cells
Method: The microfluorometric single-cell [Ca^2+]i analysis was performed on an inverted epifluorescence microscope (Carl Zeiss, Jena, Germany) and calibrated as described. Cells were grown on 25 mm coverslips and loaded with 4 µM fura-2/AM (AAT Bioquest, Sunnyvale, CA, U.S.A.) in HBS containing 0.2% BSA for 30 min at 37 °C. […] Experiments were performed either in standard bath solution, containing 1 mM Ca^2+ (black lines and bars), or in a nominally Ca^2+-free HBS buffer, supplemented with 200 µM EGTA (grey lines and bars). Time courses of averaged responses (left), and statistical analysis of 6–11 independent imaging experiments with means and S.D. (right) are shown. Significant differences (p < 0.05, Student´s t-test with paired data: #, with unpaired data: *) are marked for the indicated comparisons; n.s.: difference is statistically not significant.

TRPC7 = system: T3, TRPC7; test: Whole-cell patch-clamp recordings in HEK TRPC7-YFP cells; format: cell-based, human; conditions: 100 µM artemisinin
T3 construct: expressed in transfected cells
Method: The recordings of TRPC3, TRPC6, or TRPC7 membrane currents in HEK293 or PC12 cells were realized by using a Multiclamp 700B amplifier with a Digidata 1440A digitizer controlled by the PClamp 10 software (all Molecular Devices, Sunnyvale, CA, U.S.A.). Recordings were obtained at room temperature either in the whole-cell or in an outside-out configuration as indicated. Cells were seeded as described above, but at lower density, mounted in a chamber (Warner Instruments, Hamden, CT; U.S.A.), placed onto the stage of an inverted microscope, and perfused with required solution. The standard extracellular solution contained 140 mM NaCl, 5 mM CsCl, 2 mM MgCl2, 1 mM CaCl2, 10 mM HEPES, and 0.035% BSA adjusted to pH 7.4 with NaOH. The composition of standard intracellular solution was 140 mM CsCl, 1 mM MgCl2, 5 mM EGTA, and 10 mM HEPES adjusted to pH 7.25 with CsOH; the osmolarity was 295 mOsm l^−1. In outside-out measurements, the pipette solution contained 5 mM EGTA and 1.1 mM CaCl2 to achieve a calculated free Ca^2+ concentration of 100 nM.
Patch pipettes were pulled from borosilicate glass capillaries BG150F-8P (Science Products, Hofheim, Germany) with a PIP6 pipette puller (HEKA Elektronik, Lambrecht, Germany). […] In all whole-cell measurements, the series resistance was lower than 13 MΩ, and compensated by 70%. […]

TRPC3 [2] = system: T4, TRPC3; test: Microfluorometric single-cell [Ca2+]i analysis, fura-2-loaded HEK cells stably expressing TRPC3; format: cell-based, human; conditions: 50 µM
T4 construct: expressed in transfected cells
Method: The microfluorometric single-cell [Ca^2+]i analysis was performed on an inverted epifluorescence microscope (Carl Zeiss, Jena, Germany) and calibrated as described. Cells were grown on 25 mm coverslips and loaded with 4 µM fura-2/AM (AAT Bioquest, Sunnyvale, CA, U.S.A.) in HBS containing 0.2% BSA for 30 min at 37 °C. After gently rinsing the coverslips with HBS, coverslips were mounted in a bath chamber and superfused with HBS containing 0.035% BSA.
Figure 2 Microfluorometric single-cell analysis of artemisinin-induced increases in [Ca^2+]i in fura-2-loaded HEK cells stably expressing TRPC3 (A), TRPC6 (B), or TRPC7 (C). […] Experiments were performed either in standard bath solution, containing 1 mM Ca^2+ (black lines and bars), or in a nominally Ca^2+-free HBS buffer, supplemented with 200 µM EGTA (grey lines and bars). Time courses of averaged responses (left), and statistical analysis of 6–11 independent imaging experiments with means and S.D. (right) are shown. Significant differences (p < 0.05, Student´s t-test with paired data: #, with unpaired data: *) are marked for the indicated comparisons; n.s.: difference is statistically not significant.

`C[C@@H]1CC[C@H]2[C@@H](C)C(=O)O[C@@H]3O[C@@]4(C)CC[C@@H]1[C@]32OO4` [artemisinin] was tested, and the “fluorescence signal of the Ca2+ indicator in primary screen” value (TRPC3 [1]; 20 µM, acute addition) was “immediate and transient increase in the fluorescence signal”, the “EC50 of artemisinin under simultaneous application of OAG” value (TRPC3 [1]; 10–100 µM OAG co-applied) was “not affected” and the EC50 (TRPC3 [1]; fluo-4, HEK TRPC3-YFP cell suspensions, read-out: potency to activate Ca2+ entry through TRPC3) was 32.8 µM. For the same compound, the “Ca2+ influx signals after preincubation with OAG” value (TRPC3 [1]; preincubation with 500 nM, 1 µM, or 5 µM OAG) was “did not induce stronger Ca^2+ influx signals”, the “[Ca2+]i response in TRPC6-expressing cells” value (TRPC6) was “remained unaffected” and the “ionic currents in TRPC7-expressing HEK cells” value (TRPC7) was “only weakly enhanced”. The “[Ca2+]i signal in TRPC3-expressing cells in Ca2+-free bath” value (TRPC3 [2]; nominally Ca2+-free HBS with 200 µM EGTA) was “abolished” and the “[Ca2+]i response in TRPC3-overexpressing HEK cells” value (TRPC3 [2]; standard bath 1 mM Ca2+) was “confirmed the responses”.

From PMC7016953 (Cells, 2020)
